Experimental data from ChEMBL document CHEMBL4393743, “Anti-tumor activity evaluation of novel tubulin and HDAC dual-targeting inhibitors” (Bioorg Med Chem Lett, 2019).
The source made the active and inactive calls. The calls are words filed in the database; no cut-off is given here.

Legend:
SGC-7901 = assay: Antiproliferative activity against human SGC7901 cells assessed as cell growth inhibition incubated for 72 hrs by MTT assay; format: functional, cell-based; conditions: SGC-7901, 72 h
HeLa = assay: Antiproliferative activity against human HeLa cells assessed as cell growth inhibition incubated for 72 hrs by MTT assay; format: functional, cell-based
A549 [1] = assay: Antiproliferative activity against human A549 cells assessed as cell growth inhibition incubated for 72 hrs by MTT assay; format: functional, cell-based; conditions: A549, 72 h
[2] = molecular target: Histone deacetylase (Homo sapiens) (UniProt Q13547+O15379+Q9UBN7+Q92769+Q9UQL6+Q8WUI4+Q9BY41+Q96DB2+P56524+Q9UKV0+Q969S8); conditions: HeLa, at 1 µM
Description: Inhibition of HDAC in human HeLa cell nuclear extracts at 1 uM

A549 [3] = assay: Induction of cell cycle arrest in human A549 cells assessed as accumulation at S phase at 10 uM incubated for 36 hrs by propidium iodide staining based flow cytometry (reference value: 16.66%); format: functional
A549 [4] = assay: Induction of apoptosis in human A549 cells assessed as late apoptotic cells at 10 uM incubated for 72 hrs by Annexin V-FITC/propidium iodide-staining based flow cytometric analysis (reference value: 5.69%); format: functional
A549 [5] = assay: Induction of apoptosis in human A549 cells assessed as live cells at 10 uM incubated for 72 hrs by Annexin V-FITC/propidium iodide-staining based flow cytometric analysis (reference value: 89.8%); format: functional
A549 [6] = assay: Induction of apoptosis in human A549 cells assessed as early apoptotic cells at 10 uM incubated for 72 hrs by Annexin V-FITC/propidium iodide-staining based flow cytometric analysis (reference value: 1.8%); format: functional
LoVo = assay: Antiproliferative activity against human LoVo cells assessed as cell growth inhibition incubated for 72 hrs by MTT assay; format: functional, cell-based
A549 [7] = assay: Induction of cell cycle arrest in human A549 cells assessed as accumulation at G0/G1 phase at 10 uM incubated for 36 hrs by propidium iodide staining based flow cytometry (reference value: 72.51%); format: functional
A549 [8] = assay: Antimigratory activity in human A549 cells at 5 to 10 uM incubated for 12 hrs in presence of mitomycin by inverted microscopic-based wound healing assay; format: functional, cell-based
A549 [9] = assay: Induction of cell cycle arrest in human A549 cells assessed as accumulation at G2/M phase at 10 uM incubated for 36 hrs by propidium iodide staining based flow cytometry (reference value: 10.83%); format: functional
A549 [10] = assay: Induction of apoptosis in human A549 cells assessed as necrotic cells at 10 uM incubated for 72 hrs by Annexin V-FITC/propidium iodide-staining based flow cytometric analysis (reference value: 2.76%); format: functional
MCF7 = assay: Antiproliferative activity against human MCF7 cells assessed as cell growth inhibition incubated for 72 hrs by MTT assay; format: functional, cell-based; conditions: MCF7, 72 h
Tubulin = assay: Inhibition of tubulin polymerization (unknown origin) by spectrophotometric method; format: protein-complex assay, Homo sapiens
MDA-MB-231 = assay: Antiproliferative activity against human MDA-MB-231 cells assessed as cell growth inhibition incubated for 72 hrs by MTT assay; format: functional, cell-based; conditions: MDA-MB-231, 72 h
MGC-803 = assay: Antiproliferative activity against human MGC803 cells assessed as cell growth inhibition incubated for 72 hrs by MTT assay; format: functional, cell-based; conditions: MGC-803, 72 h
[11] = molecular target: T1, Protein deacetylase HDAC6 (Homo sapiens, UniProt Q9UBN7); assay: Inhibition of HDAC6 (unknown origin) using Boc-Lys(Ac)-AMC as substrate incubated for 60 mins by fluorescence assay
T1 sequence (Q9UBN7 whole entry): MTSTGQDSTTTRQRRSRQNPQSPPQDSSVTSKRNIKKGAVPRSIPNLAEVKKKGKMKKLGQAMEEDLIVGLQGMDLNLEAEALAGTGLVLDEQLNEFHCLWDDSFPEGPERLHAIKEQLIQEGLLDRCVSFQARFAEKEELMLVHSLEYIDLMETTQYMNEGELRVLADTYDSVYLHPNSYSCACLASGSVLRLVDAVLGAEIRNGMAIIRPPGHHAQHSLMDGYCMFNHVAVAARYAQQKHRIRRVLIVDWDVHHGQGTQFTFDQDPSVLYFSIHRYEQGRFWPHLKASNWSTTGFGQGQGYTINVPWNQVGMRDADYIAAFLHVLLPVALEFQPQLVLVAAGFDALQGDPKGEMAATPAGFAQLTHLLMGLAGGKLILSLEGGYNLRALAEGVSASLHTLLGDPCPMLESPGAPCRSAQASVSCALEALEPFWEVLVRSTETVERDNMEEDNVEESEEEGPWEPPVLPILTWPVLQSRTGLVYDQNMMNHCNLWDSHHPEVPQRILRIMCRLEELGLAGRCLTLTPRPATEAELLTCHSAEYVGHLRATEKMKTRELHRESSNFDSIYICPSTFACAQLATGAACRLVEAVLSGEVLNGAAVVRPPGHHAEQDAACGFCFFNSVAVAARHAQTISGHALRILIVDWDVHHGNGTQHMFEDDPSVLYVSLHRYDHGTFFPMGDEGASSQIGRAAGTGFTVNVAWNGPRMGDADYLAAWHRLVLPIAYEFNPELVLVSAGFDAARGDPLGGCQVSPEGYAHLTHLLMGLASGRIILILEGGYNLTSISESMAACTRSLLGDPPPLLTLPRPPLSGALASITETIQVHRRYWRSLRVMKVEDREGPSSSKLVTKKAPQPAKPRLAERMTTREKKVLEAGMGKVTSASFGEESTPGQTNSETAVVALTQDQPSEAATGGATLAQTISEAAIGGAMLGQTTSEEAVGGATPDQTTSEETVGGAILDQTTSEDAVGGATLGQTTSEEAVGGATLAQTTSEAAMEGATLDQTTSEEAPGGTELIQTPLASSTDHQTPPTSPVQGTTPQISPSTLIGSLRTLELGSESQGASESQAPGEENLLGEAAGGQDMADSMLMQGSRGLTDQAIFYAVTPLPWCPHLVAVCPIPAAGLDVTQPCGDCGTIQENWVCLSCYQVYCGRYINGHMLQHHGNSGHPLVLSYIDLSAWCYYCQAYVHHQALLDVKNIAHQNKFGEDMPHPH

NCI-H226 = assay: Antiproliferative activity against human NCI-H226 cells assessed as cell growth inhibition incubated for 72 hrs by MTT assay; format: functional, cell-based; conditions: NCI-H226, 72 h
Histone deacetylase 8 = molecular target: T2, Histone deacetylase 8 (Homo sapiens, UniProt Q9BY41); assay: Inhibition of HDAC8 (unknown origin) using Boc-Lys(Ac)-AMC as substrate incubated for 60 mins by fluorescence assay
T2 sequence (Q9BY41 whole entry): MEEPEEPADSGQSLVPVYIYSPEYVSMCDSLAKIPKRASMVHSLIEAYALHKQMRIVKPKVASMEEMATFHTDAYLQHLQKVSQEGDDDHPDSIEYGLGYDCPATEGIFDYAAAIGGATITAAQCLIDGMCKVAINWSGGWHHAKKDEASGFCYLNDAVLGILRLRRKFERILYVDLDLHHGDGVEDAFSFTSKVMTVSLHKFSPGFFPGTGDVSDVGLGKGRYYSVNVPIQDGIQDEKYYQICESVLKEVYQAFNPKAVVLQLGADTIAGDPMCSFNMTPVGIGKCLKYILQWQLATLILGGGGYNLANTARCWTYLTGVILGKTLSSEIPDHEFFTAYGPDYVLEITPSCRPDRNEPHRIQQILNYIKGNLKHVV

Histone deacetylase = assay: Inhibition of HDAC in human HeLA cell nuclear extracts; format: cell-based
NCI-H460 = assay: Antiproliferative activity against human NCI-H460 cells assessed as cell growth inhibition incubated for 72 hrs by MTT assay; format: functional, cell-based; conditions: NCI-H460, 72 h
Histone deacetylase 1 = Histone deacetylase 1 (Homo sapiens, UniProt Q13547); assay: Inhibition of HDAC1 (unknown origin) using Boc-Lys(Ac)-AMC as substrate incubated for 60 mins by fluorescence assay
Chain of Histone deacetylase 1 (Q13547 whole entry): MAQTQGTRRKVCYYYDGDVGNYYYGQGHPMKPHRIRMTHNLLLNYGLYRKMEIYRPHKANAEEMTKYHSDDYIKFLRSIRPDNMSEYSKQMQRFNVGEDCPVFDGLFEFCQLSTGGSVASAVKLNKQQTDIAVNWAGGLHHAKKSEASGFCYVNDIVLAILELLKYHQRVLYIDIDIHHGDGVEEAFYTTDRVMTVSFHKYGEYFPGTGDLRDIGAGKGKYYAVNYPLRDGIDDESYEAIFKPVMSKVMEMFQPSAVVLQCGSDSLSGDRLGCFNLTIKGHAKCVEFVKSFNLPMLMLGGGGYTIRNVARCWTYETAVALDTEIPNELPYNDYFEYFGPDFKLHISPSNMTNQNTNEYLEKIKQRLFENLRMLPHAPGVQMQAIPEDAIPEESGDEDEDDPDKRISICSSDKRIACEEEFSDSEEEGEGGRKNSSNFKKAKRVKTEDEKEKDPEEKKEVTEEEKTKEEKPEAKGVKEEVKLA

BGC-823 = assay: Antiproliferative activity against human BGC823 cells assessed as cell growth inhibition incubated for 72 hrs by MTT assay; format: functional, cell-based; conditions: BGC-823, 72 h
HCT-116 = assay: Antiproliferative activity against human HCT116 cells assessed as cell growth inhibition incubated for 72 hrs by MTT assay; format: functional, cell-based; conditions: HCT-116, 72 h

IC50 (SGC-7901) [µM]	IC50 (HeLa) [µM]	IC50 (A549 [1]) [µM]	inhibition [2] [%]	IC50 (LoVo) [µM]	SMILES	also measured
20	16.6	11.5	86		COc1ccc(/C=C(\C)C(=O)c2cc(OC)c(OC)c(OC)c2)cc1OCCCCCCC(=O)NO	
1.03				2.15	O=C(CCCCCCC(=O)Nc1ccccc1)NO [VORINOSTAT]	Activity (A549 [3]): 39.53%; Activity (A549 [4]): 24%; Activity (A549 [5]): 60.3%; Activity (A549 [6]): 7.17%; Activity (A549 [7]): 9.61%; Activity (A549 [8]): Active; Activity (A549 [9]): 50.86%; Activity (A549 [10]): 8.58%
13.9	3.15	1.45	35.4		COc1ccc(/C=C(\C)C(=O)c2cc(OC)c(OC)c(OC)c2)cc1OCCCCC(=O)NO	
24.5	21.4	7.15	87.3	12.6	COc1ccc(/C=C/C(=O)c2cc(OC)c(OC)c(OC)c2)cc1OCCCCCCC(=O)NO	IC50 (MCF7): 17.9 µM; IC50 (Tubulin): 10.4 µM; IC50 (MDA-MB-231): 15.2 µM; IC50 (MGC-803): 10.1 µM; IC50 [11]: 0.0046 µM; IC50 (NCI-H226): 15.7 µM; IC50 (Histone deacetylase 8): 3.88 µM; IC50 (Histone deacetylase): 0.1326 µM; IC50 (NCI-H460): 13.2 µM; IC50 (Histone deacetylase 1): 0.0363 µM; IC50 (BGC-823): 11.5 µM; IC50 (HCT-116): 29.9 µM
2.06	> 50	1.51			COc1ccc(/C=C(\C)C(=O)c2cc(OC)c(OC)c(OC)c2)cc1O	
> 50	25.9	14.3	32.9		COc1ccc(/C=C/C(=O)c2cc(OC)c(OC)c(OC)c2)cc1OCCCCC(=O)NO	
> 50	37.2	13.3	84.8		COc1ccc(/C=C/C(=O)c2cc(OC)c(OC)c(OC)c2)cc1OCCCCCCCC(=O)NO	
14	10.4	13.6	74.8		COc1ccc(/C=C(\C)C(=O)c2cc(OC)c(OC)c(OC)c2)cc1OCCCCCC(=O)NO	
25.2	24.6	9.4	78.5		COc1ccc(/C=C/C(=O)c2cc(OC)c(OC)c(OC)c2)cc1OCCCCCC(=O)NO	
17.4	13.3	12.2	21.8		COc1ccc(/C=C/C(=O)c2cc(OC)c(OC)c(OC)c2)cc1OCCCC(=O)NO	
1.13	0.44	1.02		3.99	COc1ccc(/C=C/C(=O)c2cc(OC)c(OC)c(OC)c2)cc1O	IC50 (MCF7): 8.6 µM; IC50 (Tubulin): 4 µM; IC50 (MDA-MB-231): 4.28 µM; IC50 (MGC-803): 8.33 µM; IC50 (NCI-H226): 4.38 µM; IC50 (NCI-H460): 4.98 µM; IC50 (BGC-823): 7.58 µM; IC50 (HCT-116): 2.85 µM
28.3	19.4	20	92.3	9.93	COc1ccc(/C=C(\C)C(=O)c2cc(OC)c(OC)c(OC)c2)cc1OCCCCCCCC(=O)NO	IC50 (MCF7): 12 µM; IC50 (Tubulin): 5 µM; IC50 (MDA-MB-231): 11.8 µM; IC50 (MGC-803): 16.4 µM; IC50 [11]: 0.0136 µM; IC50 (NCI-H226): 23.2 µM; IC50 (Histone deacetylase 8): 4.91 µM; IC50 (Histone deacetylase): 0.0715 µM; IC50 (NCI-H460): 20.2 µM; IC50 (Histone deacetylase 1): 0.0152 µM; IC50 (BGC-823): 15.2 µM; IC50 (HCT-116): 10.7 µM
